Literature values as cited in patent US20140271890A1, “CONTROLLED-RELEASE PHARMACEUTICAL COMPOSITION” (priority 2013, published 2014).

Conditions: mean dose between 5 and 10 mg in a conventional formulation

Cc1ccc(-c2nc3ccc(C)cn3c2CC(=O)N(C)C)cc1 [Zolpidem]
duration of action: up to 6 hours
